Assay [1] has as its system chronic bacterial prostatitis. How it is done:
The investigation was performed on 41 white mongrel male rats weighing on average 230 g. Bacterial prostatitis was induced in the rats by transurethral introduction of enterotoxigenic E.coli suspension K-2935 (01: K1: H-). A glycerine-lubricated catheter was inserted into the animals' urethra under a light ether narcosis after treating the external urethra opening with 70 % alcohol. 0.2 ml of bacterial suspension (10^9 colony-forming units per ml) was instilled via catheter with a syringe. Control animals were injected with 0.2 ml of 0.9 % natural saline solution through the catheter. […] The injections were performed daily for 10 days. The control groups included intact animals, animals with untreated chronic prostatitis and those treated with injections of 0.9 % natural saline solution applied by the same plan.
All the rats were euthanasised by decapitation on the 70th day of the experiment. The animals were subjected to complete autopsy. Their testes and epididymes, prostate, seminal vesicles, bulbourethral glands, urinary bladder, kidneys with ureters and other intrinsic organs were examined. For histology the ventral segment of the prostate was fixed in 10 % neutral formalin and - after a standard processing with a series of solvents - embedded in paraffin. 5-7-µm thin tissue sections were stained with haematoxylin-eosin.
The degree of prostatitis manifestation throughout the groups was assessed according to the below 5-point scale: • 1 point - traces of prostatitis (small foci of fibrosis, interstitial lymphocytic and histiocytic infiltration); • 2 points - foci of chronic prostatitis with inflammatory infiltration (basically, interstitial one) occupying less than ¼ of the gland section; • 3 points - prostatitis foci with large inflammatory infiltrates surrounding the ducts, acini and blood vessels, with leukocytic conglomerations in the glandular lumens, embracing ¼ - ½ of the gland section; • 4 points - expressed prostatitis covering ½ - ¾ of the gland section; • 5 points - strongly expressed prostatitis affecting over ¾ of the gland section.
The prostate sites were also used for electron microscopic examination and tests on the content of zinc, which makes a part of compositions with anti-microbial activity.

In assay [2] the test system is processes of free radical oxidation. To be noted: 0.1 µg per injection s.c. for 10 days. The method, then: The animals were subcutaneously administered with 0.1 µg of the tetrapeptide per injection for 10 days. The controls were similarly injected with 0.9 % natural saline solution. The rats were euthanasised on the next day after the last introduction of the tetrapeptide.
Afterwards, samples of the brain and liver tissues and blood serum were prepared and peroxide lipid oxidation (PLO) intensity in them was studied by the content of diene conjugates and Schiff's bases. The activity of glutathione peroxidase and superoxide dismutase was defined as well by the method of suppressing nitroblue tetrasolium oxidation with biological material.

The test system of assay [3] is urinary bladder explants. To be noted: 20 ng/ml, third day of cultivation.
Protocol: The experiments were carried out in 45 urinary bladder fragments of 10-11-days old chicken embryos. The nutrient medium for the explant cultivation included 35 % of Eagle's solution, 25 % of foetal calf serum, 35 % of Hanks' solution, 5 % of chicken embryonic extract and was added glucose (0.6 %), insulin (0.5 unit/ml), penicillin (100 unit/ml) and glutamine (2 mM). The urinary bladder fragments were placed in this medium and cultivated in Petri's dishes in a thermostat at 36.7°C for 48 hours. […] Square index (SI) was taken for a biological activity criterion and calculated as a correlation of the total explant square (including the growth zone) to the initial square of a urinary bladder fragment. The SI values were expressed per cent, the control SI value - taken for 100 %.

Where two headings read alike, the source gives them in different places. Marks after values point to notes of the source that are not given here.

Take “lysyl-glutamyl-aspartyl-proline [Lys-Glu-Asp-Pro tetrapeptide]”: the “positive dynamics of inflammatory processes in the prostate” value in assay [1] (0.1 µg per injection s.c. daily for 10 days) was 7 cases out of 11. Besides, the “Degree of prostatitis in points Per rat in the group” value in assay [1] (0.1 µg per injection s.c. daily for 10 days, from day 45 after infection, 5-point scale) is on record as 1.81 ± 0.09 points. In addition, the “Degree of prostatitis in points Per prostatitis-affected rat” value in assay [1] (0.1 µg per injection s.c. daily for 10 days, 5-point scale) is listed as 2.86* points. In addition, the “mean concentration of zinc in the prostate tissue” value in assay [1] (after application of the tetrapeptide (Figure 2)) is reported as “decreased”. In addition, the “Number of rats in the group Prostatitis -affected” value in assay [1] (of 11 rats in total, 0.1 µg per injection s.c. daily for 10 days) turned out to be 7. Moreover, in assay [2] (Blood serum), the Diene conjugates is 5.28 ± 0.33 nmol/mL, the Glutathione peroxidase is recorded as 2.85 ± 0.06 mmol of GlSH/min/mg of protein, the “Schiff's bases” value is given as 17.40 ± 1.54 conv. unit/ml and the Superoxide dismutase is recorded as 0.826 ± 0.060 conv. unit/mg of protein. In addition, in assay [2] (Brain), the Diene conjugates turned out to be 46.14 ± 2.91 mnol/ml, the Glutathione peroxidase is 50.7±0.2 mmole of GlSH/min/mg of protein, the “Schiff's bases” value is reported as 237.3 ± 17.8 conv. unit/ml and the Superoxide dismutase is reported as 26.7 ± 3.0 conv. unit/mg of protein. Also, in assay [2] (Liver), the Diene conjugates came out at 44.76 ± 2.48 nmol/mL, the Glutathione peroxidase is listed as 798.0±29.1 mmol of GlSH/min/mg of protein, the “Schiff's bases” value turned out to be 556.5 ±37.6 conv. unit/ml and the Superoxide dismutase is 54.1 ± 7.9 conv. unit/mg of protein. Further, in assay [3], the “increase in the explant SI as compared to the control value” turned out to be 23%.

The record behind these values is patent publication EP1353939B1, “TETRAPEPTIDE REGULATING PROSTATE FUNCTIONS AND ITS COMPOSITIONS AND USES” (Sankt-Peterburgskaya Obschestvennaya Organizatsia …, priority 2001, dated 2004).
